The values below come from patent US20150322051A1, “Macrocyclic picolinamides as fungicides” (Dow AgroSciences LLC, priority 2014, published 2015).

Assay [1] concerns Puccinia triticina; synonym: Puccinia recondita f. sp. tritici (PUCCRT). Kind of assay: Wheat brown rust (PUCCRT) whole-plant fungicidal test. It counts as in vivo. Conditions: topical, low volume (track spray) application, 121.5 g/H. As to the method:
All fungicides were evaluated using the aforementioned method for their activity vs. all target diseases, unless stated otherwise. Wheat leaf blotch and brown rust activity were also evaluated using track spray applications, in which case the fungicides were formulated as EC formulations, containing 0.1% Trycol 5941 in the spray solutions. Wheat plants (variety Yuma) were grown from seed in a greenhouse in 50% mineral soil/50% soil-less Metro mix until the first leaf was fully emerged, with 7-10 seedlings per pot. These plants were inoculated with an aqueous spore suspension of Septoria tritici either prior to or after fungicide treatments. After inoculation the plants were kept in 100% relative humidity (one day in a dark dew chamber followed by two to three days in a lighted dew chamber at 20° C.) to permit spores to germinate and infect the leaf. The plants were then transferred to a greenhouse set at 20° C. for disease to develop. When disease symptoms were fully expressed on the 1st leaves of untreated plants, infection levels were assessed on a scale of 0 to 100 percent disease severity. Percent disease control was calculated using the ratio of disease severity on treated plants relative to untreated plants. Wheat plants (variety Yuma) were grown from seed in a greenhouse in 50% mineral soil/50% soil-less Metro mix until the first leaf was fully emerged, with 7-10 seedlings per pot. These plants were inoculated with an aqueous spore suspension of Puccinia triticina either prior to or after fungicide treatments. […] The plants were then transferred to a greenhouse set at 24° C. for disease to develop. Fungicide formulation, application and disease assessment followed the procedures as described in the Example A.

Assay [2] has as its system Mycosphaerella graminicola; anamorph: Septoria tritici (SEPTTR). As to the kind of experiment: Leaf blotch of wheat (SEPTTR) whole-plant fungicidal test. Particulars: Zymoseptoria tritici, topical, low volume (track spray) application, 121.5 g/H. The class given is in vivo. As to the method:
All fungicides were evaluated using the aforementioned method for their activity vs. all target diseases, unless stated otherwise. Wheat leaf blotch and brown rust activity were also evaluated using track spray applications, in which case the fungicides were formulated as EC formulations, containing 0.1% Trycol 5941 in the spray solutions. Wheat plants (variety Yuma) were grown from seed in a greenhouse in 50% mineral soil/50% soil-less Metro mix until the first leaf was fully emerged, with 7-10 seedlings per pot. These plants were inoculated with an aqueous spore suspension of Septoria tritici either prior to or after fungicide treatments. After inoculation the plants were kept in 100% relative humidity (one day in a dark dew chamber followed by two to three days in a lighted dew chamber at 20° C.) to permit spores to germinate and infect the leaf. The plants were then transferred to a greenhouse set at 20° C. for disease to develop. When disease symptoms were fully expressed on the 1st leaves of untreated plants, infection levels were assessed on a scale of 0 to 100 percent disease severity. Percent disease control was calculated using the ratio of disease severity on treated plants relative to untreated plants.

The mark [3] stands for this setting: 24 h, 1 Day Protectant, read-out: Low Volume activity at 121.5 g/H PUCCRT 1DP (% disease control rating).
Setting [4] is: 72 h, 3 Day Curative, read-out: Low Volume activity at 121.5 g/H PUCCRT 3DC (% disease control rating).
The mark [5] stands for this setting: 24 h, 1 Day Protectant, read-out: Low Volume activity at 121.5 g/H SEPTTR 1DP (% disease control rating).
Where [6] appears, read: 72 h, 3 Day Curative, read-out: Low Volume activity at 121.5 g/H SEPTTR 3DC (% disease control rating).

Molecules are shown by their SMILES. Like-named read-outs stand apart in the source and are kept apart here.

In the case of `COc1ccnc(C(=O)N[C@H]2CCC[C@H](Cc3ccc(C(F)(F)F)cc3)[C@@H](CC(C)C)[C@H](C)OC2=O)c1OCOC(C)=O` [Compound 23], the pest or weed control at 121.5 g/ha in assay [1] (setting [3]) was over 70%; in assay [1] (setting [4]), under 70%; in assay [2] (setting [5]), over 70%; in assay [2] (setting [6]), under 70%.
As for `COc1ccnc(C(=O)N[C@H]2CCC[C@H](Cc3ccc(C(F)(F)F)cc3)[C@@H](CC(C)C)[C@H](C)OC2=O)c1OCOC(=O)C(C)C` [Compound 24], the pest or weed control at 121.5 g/ha was under 70% in assay [1] (setting [3]), under 70% in assay [1] (setting [4]), over 70% in assay [2] (setting [5]) and under 70% in assay [2] (setting [6]).
With `COc1ccnc(C(=O)N[C@H]2CCC[C@H](Cc3ccc(C(F)(F)F)cc3)[C@@H](Cc3ccccc3)[C@H](C)OC2=O)c1OC(C)=O` [Compound 25], the pest or weed control at 121.5 g/ha in assay [1] (setting [3]), in assay [1] (setting [4]), in assay [2] (setting [5]) and in assay [2] (setting [6]) was under 70% throughout.
In the case of `COc1ccnc(C(=O)N[C@H]2CCC[C@H](Cc3ccc(C(F)(F)F)cc3)[C@@H](Cc3ccccc3)[C@H](C)OC2=O)c1OCOC(C)=O` [Compound 26], the pest or weed control at 121.5 g/ha was over 70% in assay [1] (setting [3]), under 70% in assay [1] (setting [4]), over 70% in assay [2] (setting [5]) and under 70% in assay [2] (setting [6]).
Take `COc1ccnc(C(=O)N[C@H]2CCC[C@H](Cc3ccc(C(F)(F)F)cc3)[C@@H](Cc3ccccc3)[C@H](C)OC2=O)c1OCOC(=O)C(C)C` [Compound 27]: the pest or weed control at 121.5 g/ha in assay [1] (setting [3]) was over 70%; in assay [1] (setting [4]) it was under 70%; in assay [2] (setting [5]), over 70%; in assay [2] (setting [6]) it was under 70%.
`COc1ccnc(C(=O)N[C@H]2CCC[C@H](Cc3ccc(Cl)cc3)[C@@H](C3CCCC3)[C@H](C)OC2=O)c1OC(C)=O` [Compound 28]: the pest or weed control at 121.5 g/ha was over 70% in assay [1] (setting [3]), under 70% in assay [1] (setting [4]), over 70% in assay [2] (setting [5]) and over 70% in assay [2] (setting [6]).
On to `COc1ccnc(C(=O)N[C@H]2CCC[C@H](Cc3ccc(Cl)cc3)[C@@H](C3CCCC3)[C@H](C)OC2=O)c1OCOC(C)=O` [Compound 29], for which the pest or weed control at 121.5 g/ha in assay [1] (setting [3]) is over 70%; in assay [1] (setting [4]), under 70%; in assay [2] (setting [5]) it was over 70%; in assay [2] (setting [6]), over 70%.
On to `COc1ccnc(C(=O)N[C@H]2CCC[C@H](Cc3ccc(Cl)cc3)[C@@H](C3CCCC3)[C@H](C)OC2=O)c1OCOC(=O)C(C)C` [Compound 30], for which the pest or weed control at 121.5 g/ha in assay [1] (setting [3]) is under 70%; in assay [1] (setting [4]), under 70%; in assay [2] (setting [5]), over 70%; in assay [2] (setting [6]) it was over 70%.
In the case of `CCOCC(=O)OCOc1c(OC)ccnc1C(=O)N[C@H]1CCC[C@H](Cc2ccc(Cl)cc2)[C@@H](C2CCCC2)[C@H](C)OC1=O` [Compound 31], the pest or weed control at 121.5 g/ha in assay [1] (setting [3]) is over 70%; in assay [1] (setting [4]) it was under 70%; in assay [2] (setting [5]) it was over 70%; in assay [2] (setting [6]), over 70%.
`COc1ccnc(C(=O)N[C@H]2CCC[C@H](CCCc3ccccc3)[C@@H](CCc3ccccc3)[C@H](C)OC2=O)c1OCOC(C)=O` [Compound 32]: the pest or weed control at 121.5 g/ha in assay [1] (setting [3]) was over 70%; in assay [1] (setting [4]), under 70%; in assay [2] (setting [5]), over 70%; in assay [2] (setting [6]) it was under 70%.
Turning to `COc1ccnc(C(=O)N[C@H]2CCC[C@H](CCCc3ccccc3)[C@@H](CCc3ccccc3)[C@H](C)OC2=O)c1OC(C)=O` [Compound 33], the pest or weed control at 121.5 g/ha in assay [1] (setting [3]) is under 70%; in assay [1] (setting [4]), under 70%; in assay [2] (setting [5]), over 70%; in assay [2] (setting [6]), under 70%.
